Test results reported in patent publication US20120028995A1, “NOVEL COMPOUNDS FOR MEDICAL USE AS PEPTIDASE EFFECTORS” (IMTM GMBH, priority 2010, published 2012).
Where two headings read alike, the source gives them in different places.

Key:
[1] = target: T1, cytosolic aminopeptidase (cAAP) purified from Jurkat cells (Homo sapiens, UniProt P55786); assay: Inhibition of enzymatic activity of cytosolic aminopeptidase (cAAP); type: biochemical; conditions: highest test item concentration 25 μM; for IC50: read-out: meas. IC50 (cAAP)
T1 construct: The cytosolic aminopeptidase (cAAP) was purified from Jurkat cells; endogenous in cells; host or cells: Jurkat cells (enzyme purified from them)

[2] = target: T2, aminopeptidase N (APN), purified recombinant human enzyme (Homo sapiens, UniProt P15144); assay: Inhibition of enzymatic activity of aminopeptidase N (fluorogenic substrate hydrolysis); type: biochemical; conditions: highest test item concentration 25 μM; for IC50: read-out: meas. IC50 (APN)
T2 construct: made in house; host or cells: ECV cells (transfected)
Procedure: The inhibition of the enzymatic activity of aminopeptidase N (APN) was measured by using purified, recombinant human enzyme (purified from transfected ECV cells, final enzyme concentration approx. 1 nM). […] The assay was performed in 0.05M TRIS/HCl puffer pH 7.5, supplemented with 0.05% Triton (v/v), 0.05% BSA (w/v), 2 mM MgCl2.
The aminopeptidase acitivities wer assessed by the hydrolysis of the fluorogenic substrates H-Ala-4-amino-7-methyl coumarine (abbreviation of fluorogenic group AMC; purchased from Bachem) or (Ala-)2-Rhodamine 110 (abbreviation R110). The final substrate concentrations were again 50 and 1 μM, respectively.
(§1) The assay was performed in white microtitre plates for fluorescence measurements. The test items, substrate and enzyme were diluted in assay buffer. The highest test item concentration used was 25 μM. For the calculation of IC50 values, at least 16 log 2-dilutions of each test item were analyzed. As controls, the DPIV activity in the absence of test items as well as the spontaneous hydrolysis of the substrate was determined.
The release of the fluorescent hydrolysis products AMC and R110 was measured as described above for DPIV substrates.

NHEK cells = assay: Inhibition of DNA synthesis and proliferation of normal human epidermal keratinocytes (NHEK); type: cell-based; conditions: EGF-stimulated NHEK, BrdU incorporation, read-out: Supp. DNA Synt. NHEK IC50
Procedure: NHEK cells (primary cells from person) were purchased from PromoCell. For these assay the adherent cells were cultured in serum-free Keratinocyte Growth medium 2 supplemented with epidermal growth factor (EGF) and bovine pituitary extract for 48 hours in flat-bottom microtiter plates. EGF stimulates the DNA synthesis and proliferation of these cells. Test items were added in concentrations from 0.1 up to 100 μM.
The DNA synthesis was assessed by incorporation of bromdesoxyuridine (BrdU) and subsequent detection of BrdU by ELISA technique. Based on these raw data the relative proliferation response in relation to cells cultured in the absence of test compound (100% control) was calculated. IC50 values of proliferation suppression were assessed by computer-assisted graphical evaluation.

[3] = target: T3, purified, recombinant human DPIV (Homo sapiens, UniProt P27487); assay: Inhibition of enzymatic activity of DPIV (fluorogenic substrate hydrolysis); type: biochemical; conditions: highest test item concentration 25 μM; for IC50: read-out: meas. IC50 (DPIV)
T3 construct: made in house; host or cells: Sf9 insect cells
Procedure: (§2) The inhibition of the enzymatic activity of DPIV and related enzymes was measured by using purified, recombinant human DPIV (purified from transfected Sf9 cells, final enzyme concentration approx. 1 nM) as well as purified, recombinant DP8 and DP9 (purchased from Biomol). The assay was performed in 0.05M TRIS/HCl puffer pH 7.5, supplemented with 0.05% Triton (v/v), 0.05% BSA (w/v), 2 mM MgCl2.
(§3) The enzymatic activity of DPIV was assessed by the hydrolysis of the fluorogenic substrates H-Gly-Pro-4-amino-7-methyl coumarine (abbreviation of fluorogenic group AMC; purchased from Bachem) or (Ala-Pro)2-Rhodamine 110 (abbreviation R110). The final substrate concentrations were 50 μM or 1 μM, respectively.
as §1
(§4) The release of the fluorescent hydrolysis product AMC was measured at an excitation wavelength of 380 nm and an emission wavelength of 460 nm by using a microtitre fluorescence reader immediately after substrate addition as well as after 30, 60 and 120 min. The hydrolysis of the substrate (Ala-Pro)2-Rhodamine 110 was determined at an exitation wavelength of 488 nm and emission wavelength of 530 nm.

SZ95 cells = assay: Inhibition of DNA synthesis and proliferation of immortalized human sebocytes SZ95; type: cell-based; conditions: EGF-stimulated SZ95 sebocytes, tritium thymidine incorporation, read-out: Supp. DNA Synt. SZ95 IC50
Procedure: The immortalized human sebocyte line SZ95 was provided by Prof. C Zouboulis [C C Zouboulis, H Seltmann, H Neitzel, C E Orfanos, Establishment and characterization of an immortalized human sebaceous gland cell line (SZ95). J. Invest. Dermatol. 113(6):1011-1020 (1999), the entire disclosure of which is incorporated by reference herein]. These adherent growing cells were cultured in serum-free Sebomed Complete (Biochrom). Recombinant EGF was added in order to stimulate DNA synthesis and proliferation of the SZ95 cells. Test items were added in concentrations from 0.1 up to 100 μM.
The DNA synthesis of proliferating cells was detected by incorporation of radiolabelled tritium thymidine (3HT) and counting at a beta counter. Based on these raw data the relative proliferation response in relation to cells cultured in the absence of test compound (100% control) was calculated. IC50 values of proliferation suppression were assessed by computer-assisted graphical evaluation.

T lymphocytes (T cells) = assay: Suppression of DNA synthesis of PHA-stimulated T lymphocytes; type: cell-based; conditions: tritium thymidine incorporation, read-out: Supp. DNA Synt. T-cell IC50
Procedure: Peripheral blood mononuclear cells (PBMC) from healthy human volunteers were freshly isolated by density gradient centrifugation. T lymphocytes (T cells) were isolated from PBMC fractions via nylon wool adherence. Both cell populations were cultured in serum free lymphocyte medium (AIMV medium, Invitrogen) and stimulated by addition of 1 μg/ml Phytohemagglutinine for 48 hours in 96 well flat-bottom microtiter plates. Test compounds were added at concentration ranges from 0.1 up to 250 μM over the total assay period.
DNA synthesis of proliferating PBMC was assessed by incorporation of nucleotide analogue bromdesoxyuridine (BrdU) and subsequent detection of BrdU by ELISA technique (Cell Proliferation Biotrak™ ELISA system, GE Health Care) according to the protocol of the manufacturer. DNA synthesis of proliferating T cells was determined by incorporation of radio labelled tritium thymidine and subsequent radio detection.
Data output was based on raw data and calculation of relative proliferation response in relation to PHA-activated T cells in the absence of test compound (100% control). The IC50 value of proliferation suppression was assessed by graphical evaluation.

[4] = test system: purified, recombinant DP8 and DP9; assay: Inhibition of enzymatic activity of DP8/9; type: biochemical; conditions: highest test item concentration 25 μM; for IC50: read-out: meas. IC50 (DP8/9)
Procedure: as §2, §3, §1, §4

[5] = PHA-stimulated human T cells, 48 hours

T1 sequence (P55786 whole entry): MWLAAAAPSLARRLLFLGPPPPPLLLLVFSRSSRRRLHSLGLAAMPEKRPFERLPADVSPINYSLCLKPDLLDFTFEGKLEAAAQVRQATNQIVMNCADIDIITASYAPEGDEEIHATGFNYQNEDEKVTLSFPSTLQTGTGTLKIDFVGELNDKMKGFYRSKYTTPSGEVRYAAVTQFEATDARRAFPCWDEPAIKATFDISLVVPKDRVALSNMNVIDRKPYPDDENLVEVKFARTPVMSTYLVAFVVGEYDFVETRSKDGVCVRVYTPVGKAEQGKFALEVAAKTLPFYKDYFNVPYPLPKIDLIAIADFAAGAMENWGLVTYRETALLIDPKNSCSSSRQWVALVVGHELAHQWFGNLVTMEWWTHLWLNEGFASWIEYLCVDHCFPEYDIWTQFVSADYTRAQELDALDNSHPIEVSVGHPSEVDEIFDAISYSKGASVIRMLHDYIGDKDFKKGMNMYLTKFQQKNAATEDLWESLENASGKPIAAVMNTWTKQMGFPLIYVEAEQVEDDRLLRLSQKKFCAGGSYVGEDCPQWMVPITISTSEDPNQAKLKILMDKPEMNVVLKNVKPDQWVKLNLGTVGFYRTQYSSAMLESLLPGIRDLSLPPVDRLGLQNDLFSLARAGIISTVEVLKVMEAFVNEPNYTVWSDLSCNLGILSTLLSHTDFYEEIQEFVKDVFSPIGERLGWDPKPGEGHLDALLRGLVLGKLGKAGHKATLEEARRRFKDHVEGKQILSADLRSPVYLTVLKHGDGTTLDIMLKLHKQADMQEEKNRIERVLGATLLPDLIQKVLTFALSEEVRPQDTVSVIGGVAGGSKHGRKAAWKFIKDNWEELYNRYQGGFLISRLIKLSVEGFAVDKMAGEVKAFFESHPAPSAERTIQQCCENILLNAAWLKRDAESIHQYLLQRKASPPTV
T2 sequence (P15144 whole entry): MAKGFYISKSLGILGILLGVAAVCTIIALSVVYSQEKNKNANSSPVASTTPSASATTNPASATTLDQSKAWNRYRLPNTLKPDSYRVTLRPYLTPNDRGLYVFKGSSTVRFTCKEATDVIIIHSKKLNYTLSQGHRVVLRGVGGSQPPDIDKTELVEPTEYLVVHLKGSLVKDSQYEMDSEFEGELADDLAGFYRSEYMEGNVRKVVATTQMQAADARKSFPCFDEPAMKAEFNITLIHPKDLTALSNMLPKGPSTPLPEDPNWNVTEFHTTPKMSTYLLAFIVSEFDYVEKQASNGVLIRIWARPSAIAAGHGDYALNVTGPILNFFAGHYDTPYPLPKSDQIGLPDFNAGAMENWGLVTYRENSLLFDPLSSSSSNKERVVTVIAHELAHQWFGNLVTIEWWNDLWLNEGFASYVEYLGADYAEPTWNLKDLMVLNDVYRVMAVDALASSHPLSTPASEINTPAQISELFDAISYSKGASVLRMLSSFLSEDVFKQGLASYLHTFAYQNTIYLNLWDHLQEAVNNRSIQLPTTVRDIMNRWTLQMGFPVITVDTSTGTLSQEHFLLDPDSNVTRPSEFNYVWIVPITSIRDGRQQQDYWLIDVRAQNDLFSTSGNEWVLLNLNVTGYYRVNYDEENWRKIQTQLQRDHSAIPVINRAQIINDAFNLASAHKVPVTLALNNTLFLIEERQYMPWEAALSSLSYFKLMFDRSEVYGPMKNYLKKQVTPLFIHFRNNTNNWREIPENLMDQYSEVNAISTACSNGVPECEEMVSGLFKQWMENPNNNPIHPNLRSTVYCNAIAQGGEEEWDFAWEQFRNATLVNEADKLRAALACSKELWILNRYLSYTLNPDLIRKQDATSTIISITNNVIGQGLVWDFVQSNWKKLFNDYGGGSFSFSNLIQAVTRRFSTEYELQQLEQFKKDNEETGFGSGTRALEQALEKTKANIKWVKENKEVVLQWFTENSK
T3 sequence (P27487 whole entry): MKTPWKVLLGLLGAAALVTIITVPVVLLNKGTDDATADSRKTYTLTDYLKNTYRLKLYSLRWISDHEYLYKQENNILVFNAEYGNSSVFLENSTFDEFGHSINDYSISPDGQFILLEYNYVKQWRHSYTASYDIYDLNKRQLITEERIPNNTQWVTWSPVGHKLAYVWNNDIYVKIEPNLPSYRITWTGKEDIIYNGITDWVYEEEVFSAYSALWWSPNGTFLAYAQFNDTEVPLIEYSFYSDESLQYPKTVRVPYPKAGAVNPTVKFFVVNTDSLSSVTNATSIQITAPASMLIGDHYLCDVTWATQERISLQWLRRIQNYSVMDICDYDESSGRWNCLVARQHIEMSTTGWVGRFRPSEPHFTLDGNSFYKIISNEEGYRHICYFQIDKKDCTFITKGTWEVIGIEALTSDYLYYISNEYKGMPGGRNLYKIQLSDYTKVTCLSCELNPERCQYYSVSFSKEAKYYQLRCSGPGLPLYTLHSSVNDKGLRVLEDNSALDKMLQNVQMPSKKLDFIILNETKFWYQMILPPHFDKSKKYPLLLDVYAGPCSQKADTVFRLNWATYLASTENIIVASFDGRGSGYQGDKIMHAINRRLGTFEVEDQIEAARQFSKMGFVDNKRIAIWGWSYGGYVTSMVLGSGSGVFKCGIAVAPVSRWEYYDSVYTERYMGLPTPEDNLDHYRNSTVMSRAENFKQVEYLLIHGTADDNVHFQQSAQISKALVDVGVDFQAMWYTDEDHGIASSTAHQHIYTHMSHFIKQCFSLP

Row | SMILES | meas. IC50 (cAAP) [1] | meas. IC50 (APN) [2] | IC50 (NHEK cells; Homo sapiens, NHEK, 48 h) [µM] | meas. IC50 (DPIV) [3] | IC50 (SZ95 cells; Homo sapiens) [µM] | IC50 (T lymphocytes (T cells); Homo sapiens, T-cell, 48 h) [µM] | meas. IC50 (DP8/9) [4] | IC50 [1] [µM] | IC50 [2] [µM] | IC50 [3] [µM] | IC50 [4] [µM] | IC50 (NHEK cells; 48 hours) [µM] | IC50 (SZ95 cells) [µM] | IC50 (T lymphocytes (T cells); [5]) [µM]
1 | CC(C)(C)OC(=O)NC(CCCCNC(=O)c1cccc(NC(=O)C(O)C(Cc2ccccc2)NC(=O)OC(C)(C)C)c1)C(=O)N1CCSC1 (stereo not drawn) [Compound C21.004] | no in- hibition | no in- hibition | 13.9 | no in- hibition | 19.4 | 12 | no in- hibition | – | – | – | – | – | – | –
2 | NC(CNC(=O)c1cccc(NC(=O)C(O)C(N)COCc2ccccc2)c1)Cc1cc(F)ccc1F (stereo not drawn) [Compound C19.031] | – | – | 20.1 | – | ≥ 119 | 58.2 | – | 0.18 | 0.012 | 2.3 | 13.3 | – | – | –
3 | CC(C)(CNC(=O)CC(Cc1cc(F)ccc1F)NC(=O)OCc1ccccc1)CNC(=O)C(O)C(N)COCc1ccccc1 (stereo not drawn) [Compound C19.026] | – | – | 8.9 | No in- hibition | 22.7 | 12.2 | – | 0.5 | 1 | – | 7.3 | – | – | –
4 | COc1ccc(COCC(NC(=O)OC(C)(C)C)C(O)C(=O)NCC(C)(C)CNC(=O)CC(Cc2cc(F)ccc2F)NC(=O)OC(C)(C)C)cc1 (stereo not drawn) [Compound C19.006] | – | no in- hibition | 24.1 | no in- hibition | 18.5 | 6.2 | no in- hibition | 10.2 | – | – | – | – | – | –
5 | CC(C)(CNC(=O)CC(Cc1cc(F)ccc1F)NC(=O)OC(C)(C)C)CNC(=O)C(OC(=O)C(C)(C)C)C(COCc1ccccc1)NC(=O)OC(C)(C)C (stereo not drawn) [Compound C19.019] | no in- hibition | no in- hibition | ≥ 131 | no in- hibition | 70.6 | 122 | no in- hibition | – | – | – | – | – | – | –
6 | CC(=O)SC(C(=O)NCCCCC(NC(=O)OC(C)(C)C)C(=O)N1CCSC1)C(Cc1ccccc1)NC(=O)OC(C)(C)C (stereo not drawn) [Compound C22.001] | – | no in- hibition | ≥ 200 | no in- hibition | 57.1 | 136 | no in- hibition | 0.57 | – | – | – | – | – | –
7 | CC(C)(C)OC(=O)NC(CNC(=O)c1cccc(NC(=O)C(O)C(COCc2ccccc2)NC(=O)OC(C)(C)C)c1)Cc1cc(F)ccc1F (stereo not drawn) [Compound C19.015] | no in- hibition | no in- hibition | 15.9 | no in- hibition | 5.75 | 8 | no in- hibition | – | – | – | – | – | – | –
8 | CC(C)NC(CC(=O)NCC(C)(C)CNC(=O)C(O)C(N)COCc1ccccc1)Cc1cc(F)ccc1F (stereo not drawn) [Compound C19.029] | – | – | 34.8 | – | 92.7 | 29.4 | – | 0.33 | 0.59 | 14.5 | 24.3 | – | – | –
9 | CC(C)(CNC(=O)CC(Cc1cc(F)ccc1F)NC(=O)OC(C)(C)C)CNC(=O)C(O)C(COCc1ccccc1)NC(=O)OC(C)(C)C (stereo not drawn) [Compound C19.024] | no in- hibition | no in- hibition | – | No in- hibition | – | – | no in- hibition | – | – | – | – | 21.1 | 13.3 | 11.4
10 | CC(C)(C)OC(=O)NC(CCCCNC(=O)C(S)C(Cc1ccccc1)NC(=O)OC(C)(C)C)C(=O)N1CCSC1 (stereo not drawn) [Compound C22.002] | – | no in- hibition | 85.2 | no in- hibition | ≥ 200 | 54.1 | no in- hibition | 1 | – | – | – | – | – | –
11 | CCCC(=O)OC(C(=O)Nc1cccc(C(=O)NCC(Cc2cc(F)ccc2F)NC(=O)OC(C)(C)C)c1)C(COCc1ccccc1)NC(=O)OC(C)(C)C (stereo not drawn) [Compound C19.005] | – | no in- hibition | 3.65 | no in- hibition | 10.7 | 11.5 | no in- hibition | 5.7 | – | – | – | – | – | –
12 | CC(C)(CNC(=O)CC(Cc1cc(F)ccc1F)NC(=O)OCc1ccccc1)CNC(=O)C(O)C(COCc1ccccc1)NC(=O)OCc1ccccc1 (stereo not drawn) [Compound C19.008] | – | no in- hibition | 6.77 | no in- hibition | 8.6 | 5.7 | no in- hibition | 5.8 | – | – | – | – | – | –
13 | NC(CCCCNC(=O)c1cccc(NC(=O)C(O)C(N)Cc2ccccc2)c1)C(=O)N1CCSC1 (stereo not drawn) [Compound C21.003] | – | – | 62 | – | ≥ 200 | 157 | – | 0.13 | 0.62 | 0.07 | 0.054 | – | – | –
14 | CC(C)(CNC(=O)CC(Cc1cc(F)ccc1F)NC(=O)OC(C)(C)C)CNC(=O)C(O)C(COCc1ccccc1)NC(=O)OC(C)(C)C (stereo not drawn) [Compound C19.004] | no in- hibition | no in- hibition | – | no in- hibition | – | – | no in- hibition | – | – | – | – | 19.8 | 18.3 | 9.7
15 | CCCCCCCC(=O)NC(CC(=O)NCC(C)(C)CNC(=O)C(O)C(COCc1ccccc1)NC(=O)CCCCCCC)Cc1cc(F)ccc1F (stereo not drawn) [Compound C19.010] | – | no in- hibition | 48.1 | no in- hibition | 12.2 | 7.6 | no in- hibition | 3.5 | – | – | – | – | – | –
